Measurements reported in patent US20220110846A1, “EMOLLIENT AND CLEANSING AGENT” (Oleon NV, priority 2020, published 2022).

Legend:
[1] = test system: Staphylococcus aureus, DSM 799; test: Minimum inhibitory concentration (ISO 20776-1:2019); type: cell-based
Protocol: (§1) Preservatives used were phenoxyethanol and benzyl alcohol.
(§2) Micro-organisms used were: • Staphylococcus aureus, DSM 799; • Candida albicans, DSM 1386.
(§3) Two samples were prepared comprising each 90 wt % of combination 1 and 10 wt % of respectively phenoxyethanol and benzyl alcohol.
(§4) Two comparative samples comprising 100 wt % of respectively phenoxyethanol and benzyl alcohol were also prepared.
(§5) To evaluate the boosting antimicrobial property of the combination according to the invention, the minimum inhibitory concentration (MIC) was determined according to a method based on standard ISO 20776-1:2019.

[2] = test system: Candida albicans, DSM 1386; test: as above; type: cell-based
Protocol: as §1, §2, §3, §4, §5

MIC, Staphylococcus aureus [1]: 0.40% | MIC, Candida albicans [2]: 0.30%
SMILES: OCc1ccccc1 [Benzyl alcohol, benzyl alcohol]
